Molecular target: T1, human vasopressin V1a receptor subtype (Homo sapiens, UniProt P37288)
T1 construct: host or cells: CHO cells (pZeoSV vector for the Thibonnier line)
Test: Vasopressin binding in Chinese Hamster Ovary cell membranes expressing human vasopressin V1a subtype receptors
Conditions: 100 nM, CHO cell membranes, [3H]Manning ligand, values without parentheses
Procedure: Vasopressin Binding in Chinese Hamster Ovary Cell Membranes Expressing Human Vasopressin V1a Subtype Receptors
The trypsin is removed by aspiration and the cells dislodged by tapping. Cell Culture medium (e.g. 30 mL for 1:30 split) is immediately added and mixed well to inactivate trypsin. 1 mL of detached cells is added to new culture flasks containing fresh cell culture medium (e.g., into 25 mL per T-150 flask), and mixed gently. The cells are incubated at 37° C. in 5% CO2. The medium is changed at 3 to 4 days interval (or as appropriate). […] All steps are done under sterile conditions. B. Membrane Preparation: The cells are washed twice gently with Hank's Balanced Salt solution (e.g,. use 10 mL per T-150 flask). […] The contents are transferred to centrifuge tubes (50 mL) kept in an ice bath. All subsequent steps are done at 4° C. The tubes are centrifuged at 300×g for 15 min (1380 rpm on SORVAL, Model RT6000D, using the rotor for 50 mL tubes). The supernatant is discarded and the cells suspended in homogenizing buffer(10 mM Tris-HCl containing 0.25 M sucrose and 1 mM EDTA, pH 7.4) ensuring that the volume of the buffer is about ten times the volume of the cell pellet. The cells are pooled into a centrifuge tube (50 mL) and homogenized with a Polytron at setting 6 for 10 sec. The homogenate is transferred into a Potter-Elvjehm homogenizer and homogenized with 3 strokes. The homogenate is centrifuged at 1500×g for 10 min at 4° C. (3100 rpm using SORVAL, model RT6000D, using the rotor for 50 mL tubes). The pellet is discarded. The supernatant is centrifuged at 100,000×g for 60 min. at 4° C. (Beckman L8-80M ultracentrifuge; spin at 37,500 rpm with rotor type 70 Ti for 50 mL tubes; 38,000 rpm with type 80Ti for 15 mL tubes; or 35,800 rpm with rotor type 45Ti). The supernantant is discarded and the pellet suspended in 3 to 4 mL of Tris buffer (50 mM TRIS-HCl, pH 7.4). The protein content is estimated by the Bradford or Lowry method. The volume of the membrane suspension is adjusted with the membrane buffer (50 mM Tris-HCl containing 0.1% BSA and 0.1 mM PMSF) to give 3.0 mg/mL (or as appropriate) of protein. The membranes are aliquoted and stored at −70° C. C. Radioligand Binding Assay: In wells of a 96-well format microtiter plate, is added 90, 110 or 130 μL (to make up a final volume of 200 μL) of assay buffer containing 50 mM of Tris-HCl (pH 7.4), BSA (heat inactivated, protease-free), […], 1 mg % aprotinin, 1 mg % leupeptin, 2 mg % 1,10-phenanthroline, 10 mg % trypsin inhibitor, and 0.1 mM PMSF. The inhibitors are added on the day of the experiment. The components are mixed at room temperature, and then kept in ice bath following adjustment of the pH to 7.4. […] 20 μL of 50% DMSO is added for Manning and other peptide ligands and the assay buffer volume is adjusted accordingly. To each well is added 50 μL of frozen membrane suspension thawed immediately prior to use and diluted in the assay buffer to the required concentration (equivalent to 25 to 50 μg of protein/well as needed). 20 μL of 8 nM [^3H]Manning ligand in the assay buffer, prepared just before use, is added, and incubated at room temperature for 60 min. shaking the plate on a mechanical shaker for the first 15 min. The incubation is stopped by rapid filtration of the plate contents followed by wash with ice-cold buffer (50 mM Tris-HCl, pH 7.4) using a cell harvester (Tomtek and Printed filtermat-B filter paper). The filter paper is thoroughly dried (7–12 min. in a microwave oven) and impregnated with MeltiLex B/H melt-on scintillation wax sheets and the radioactivity counted in a betaplate scintillation counter.
Binding data is either reported as percent inhibition at a certain concentration or if an IC50 was calculated, as a nanomolar concentration.

T1 sequence (P37288 whole entry): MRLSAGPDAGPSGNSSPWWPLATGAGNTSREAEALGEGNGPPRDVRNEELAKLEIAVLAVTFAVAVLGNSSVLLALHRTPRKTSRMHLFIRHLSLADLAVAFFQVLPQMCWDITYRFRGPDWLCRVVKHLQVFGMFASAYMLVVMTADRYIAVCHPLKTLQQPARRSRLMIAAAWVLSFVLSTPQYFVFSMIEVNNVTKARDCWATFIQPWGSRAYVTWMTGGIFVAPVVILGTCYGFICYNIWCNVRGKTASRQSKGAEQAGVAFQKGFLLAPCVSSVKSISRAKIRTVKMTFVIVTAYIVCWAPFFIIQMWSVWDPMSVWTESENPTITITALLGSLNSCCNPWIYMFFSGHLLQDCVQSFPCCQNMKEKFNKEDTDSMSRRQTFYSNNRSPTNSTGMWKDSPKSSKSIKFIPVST

inhibition at 0.1 µM [%]	Molecule	V1a % inhibition @ 100 nM [%]
4	COc1ccccc1-c1ccc(C(=O)N2Cc3ccc(C(=O)N4CCC(N5CCCC5)CC4)n3Cc3ccccc32)cc1C [Example 137, {10-[(2′-Methoxy-2-methyl[1,1′-biphenyl]-4-yl)carbonyl]-10,11-dihydro-5H-pyrrolo[2,1-c][1,4]benzodiazepin-3-yl}[4-(1-pyrrolidinyl)-1-piperidinyl]methanone]	
	COc1cc(C(=O)N2Cc3ccc(C(=O)N4CCC[C@H]4CN4CCCC4)n3Cc3ccccc32)ccc1-c1cccc2ccccc12 [Example 262, {10-[3-Methoxy-4-(1-naphthyl)benzoyl]-10,11-dihydro-5H-pyrrolo[2,1-c][1,4]benzodiazepin-3-yl}[(2S)-2-(1-pyrrolidinylmethyl)pyrrolidinyl]methanone]	8
16	Cc1ccccc1-c1ccc(C(=O)N2Cc3ccc(C(=O)NCCCn4ccnc4)n3Cc3ccccc32)cc1 [Example 127, N-[3-(1H-Imidazol-1-yl)propyl]-10-[(2′-methyl[1,1′-biphenyl]-4-yl)carbonyl]-10,11-dihydro-5H-pyrrolo[2,1-c][1,4]benzodiazepine-3-carboxamide]	
9	CN(C)CCCN(C)C(=O)c1ccc2n1Cc1ccccc1N(C(=O)c1ccc(-c3cccc4ccccc34)cc1Cl)C2 [Example 109, 10-[2-Chloro-4-(1-naphthyl)benzoyl]-N-[3-(dimethylamino)propyl]-N-methyl-10,11-dihydro-5H-pyrrolo[2,1-c][1,4]benzodiazepine-3-carboxamide]	
	COc1cc(C(=O)N2Cc3ccc(C(=O)N4CCC[C@H]4CN4CCCC4)n3Cc3ccccc32)ccc1-c1ccccc1Cl [Example 33, {[10-(2-Methoxy)-2′-chloro-[1,1′-biphenyl]-4-yl]carbonyl}-[(2S)-[(2-pyrrolidin-1-yl)methyl]pyrrolidin-1-yl]-10,11-dihydro-5H-pyrrolo[2,1-c][1,4]benzodiazepin-3-yl-methanone]	68
	{10-[(2,2′-Dimethoxy[1,1′-biphenyl]-4-yl)carbonyl]-10,11-dihydro-5H-pyrrolo[2,1-c][1,4]benzodiazepin-3-yl}(4-isopropyl-1-piperazinyl)methanone [Example 244]	44
	Cc1ccccc1-c1ccc(C(=O)N2Cc3ccc(C(=O)N4CC[C@@H](N(C)C)C4)n3Cc3ccccc32)cc1 [Example 280, [(3R)-3-(Dimethylamino)pyrrolidinyl]{10-[(2′-methyl[1,1′-biphenyl]-4-yl)carbonyl]-10,11-dihydro-5H-pyrrolo[2,1-c][1,4]benzodiazepin-3-yl}methanone]	77
14	COc1cc(C(=O)N2Cc3ccc(C(=O)N4CCC(N5CCCCC5)CC4)n3Cc3ccccc32)ccc1-c1cccc2ccccc12 [Example 118, {10-[3-Methoxy-4-(1-naphthyl)-benzoyl]-10,11-dihydro-5H-pyrrolo[2,1-c][1,4]benzodiazepin-3-yl}[4-(1-piperidinyl)-1-piperidinyl]methanone]	
0	COc1cc(-c2ccccc2C)c(Cl)cc1C(=O)N1Cc2ccc(C(=O)NCCN3CCCCC3)n2Cc2ccccc21 [Example 155, 10-[(6-Chloro-3-methoxy-2′-methyl[1,1′-biphenyl]-4-yl)carbonyl]-N-[2-(1-piperidinyl)ethyl]-10,11-dihydro-5H-pyrrolo[2,1-c][1,4]benzodiazepine-3-carboxamide]	
	COc1cccc(-c2cc(OC)c(C(=O)N3Cc4ccc(C(=O)N5CCN(CCN6CCOCC6)CC5)n4Cc4ccccc43)cc2Cl)c1 [Example 212, {10-[(6-Chloro-3,3′-dimethoxy[1,1′-biphenyl]-4-yl)carbonyl]-10,11-dihydro-5H-pyrrolo[2,1-c][1,4]benzodiazepin-3-yl}{4-[2-(4-morpholinyl)ethyl]-1-piperazinyi}methanone]	35
-8	Cc1cc(C(=O)N2Cc3ccc(C(=O)N(CCCN(C)C)CCCN(C)C)n3Cc3ccccc32)ccc1-c1ccccc1C(F)(F)F [Example 3, 10-[(2-Methyl-2′-trifluoromethyl-[1,1′-biphenyl]-4-yl)-carbonyl]-10,11-dihydro-5H-pyrrolo[2,1-c][1,4]benzodiazepine-3-carboxylic acid bis-(3-dimethylamino-propyl)-amide]	
	Cc1ccccc1-c1ccc(C(=O)N2Cc3ccc(C(=O)N4CCC[C@H]4CN4CCCC4)n3Cc3ccccc32)cc1 [Example 264, {10-[(2′-Methyl[1,1′-biphenyl]-4-yl)carbonyl]-10,11-dihydro-5H-pyrrolo[2,1-c][1,4]benzodiazepin-3-yl}[(2S)-2-(1-pyrrolidinylmethyl)pyrrolidinyl]methanone]	67
	COc1cc(C(=O)N2Cc3ccc(C(=O)N4CC[C@@H](N(C)C)C4)n3Cc3ccccc32)ccc1-n1c(C)ccc1C [Example 322, [(3R)-3-(Dimethylamino)pyrrolidinyl]{10-[4-(2,5-dimethyl-1H-pyrrol-1-yl)-3-methoxybenzoyl]-10,11-dihydro-5H-pyrrolo[2,1-c][1,4]benzodiazepin-3-yl}methanone]	12
23	COc1ccccc1-c1ccc(C(=O)N2Cc3ccc(C(=O)NCCN4CCCCC4)n3Cc3ccccc32)cc1 [Example 152, 10-[(2′-Methoxy[1,1′-biphenyl]-4-yl)carbonyl]-N-[2-(1-piperidinyl)ethyl]-10,11-dihydro-5H-pyrrolo[2,1-c][1,4]benzodiazepine-3-carboxamide]	
	Cc1cccc(N2CCN(C(=O)c3ccc4n3Cc3ccccc3N(C(=O)c3ccc(-c5ccccc5C(F)(F)F)c(C)c3)C4)CC2C)c1 (stereo not shown) [Example 5, [3-Methyl-4-(3-methyl-phenyl)-piperazin-1-yl]-[10-(2-methyl-2′-trifluoromethyl-[1,1′-biphenyl]-4-yl)carbonyl]-10,11-dihydro-5H-pyrrolo[2,1-c][1,4]benzodiazepin-3-yl-methanone]	−6
2	COc1ccccc1-c1ccc(C(=O)N2Cc3ccc(C(=O)NCCCn4ccnc4)n3Cc3ccccc32)cc1OC [Example 132, 10-[(2,2′-Dimethoxy[1,1′-biphenyl]-4-yl)carbonyl]-N-[3-(1H-imidazol-1-yl)propyl]-10,11-dihydro-5H-pyrrolo[2,1-c][1,4]benzodiazepine-3-carboxamide]	
-9	Cc1cc(C(=O)N2Cc3ccc(C(=O)N4CCC(N5CCCC5)CC4)n3Cc3ccccc32)ccc1-c1ccccc1C(F)(F)F [Example 148, (10-{[2-Methyl-2′-(trifluoromethyl)[1,1′-biphenyl]-4-yl]carbonyl}-10,11-dihydro-5H-pyrrolo[2,1-c][1,4]benzodiazepin-3-yl)[4-(1-pyrrolidinyl)-1-piperidinyl]methanone]	
	Cc1ccccc1-c1ccc(C(=O)N2Cc3ccc(C(=O)N4CC[C@@H](N(C)C)C4)n3Cc3ccccc32)cc1C [Example 274, [(3R)-3-(Dimethylamino)pyrrolidinyl]{10-[(2,2′-dimethyl[1,1′-biphenyl]-4-yl)carbonyl]-10,11-dihydro-5H-pyrrolo[2,1-c][1,4]benzodiazepin-3-yl}methanone]	90
	COc1cc(C(=O)N2Cc3ccc(C(=O)N4CC[C@@H](N(C)C)C4)n3Cc3ccccc32)ccc1-c1ccccc1C [Example 281, [(3R)-3-(Dimethylamino)pyrrolidinyl]{10-[(2-methoxy-2′-methyl[1,1′-biphenyl]-4-yl)carbonyl]-10,11-dihydro-5H-pyrrolo[2,1-c][1,4]benzodiazepin-3-yl}methanone]	58
